Source: patent US9050353B2, “Use of icariin and epimedium flavonoids containing icariin to treat diseases associated with myelin sheath lesion” (Xuanwu Hospital of Capital Medical University, priority 2010, dated 2015)

Columns and labels:
Assay type in all cases: in vivo
TNF-α = TNF-α content of cerebral cortex by ELISA, EAE rats; conditions: positive control drug, dose not given
Description: (§1) Preparation of rat model and administration: experimental autoimmune encephalomyelitis (EAE) model is an important tool for studying various human demyelinating diseases of nervous system. In the example, the preparation of EAE rat model was performed by multipoint immunizing female Lewis rats subcutaneously at tail root with a homogenate of spinal cord and cerebral gray matter of Guinea pig as well as complete Freund's adjuvant after emulsification. They were intragastrically administered with Epimedium flavanoids for 3 weeks.
Experimental objective: tumor necrosis factor α (TNF-α) is an important inflammatory cytokines, and has promoting effects on inflammatory reactions. This experiment used enzyme linked immunosorbent assay (ELISA) to measure TNF-α content of cerebral cortex in EAE rat model, and observe the effects of Epimedium flavanoids on the content.
Experimental method: rats were anesthetized and sacrificed, fresh brain tissues were was taken, processed to form cerebral cortex homogenate. The operation was performed strictly according to the steps of specification of ELISA kit. Optical density was measured with ELISA at 450 nm. The corresponding TNF-α content was calculated with the measured OD values on standard curve.

[1] = system: peripheral blood CD4+ and CD8+ T cells; assay: Peripheral blood T cell subgroup by flow cytometer, EAE mice; conditions: positive control drug, dose not given
Description: Preparation of mice model and administration: experimental autoimmune encephalomyelitis (EAE) mice model is an important tool for studying various human demyelinating diseases of nervous system. In the present experiment, the preparation of EAE mice model was performed by immunizing female C57BL/6J mice with myelin sheath oligodendroglial cell surface glycoprotein MOG35-55. That is, the mice were subcutaneously injected at dorsal part of spinal column with 0.2 mL of MOG35-55 antigen elixir, and 0.2 ml of bordetella pertussis solution was intraperitoneally injected at the time of immunization injection and 48 h thereafter, respectively. Icariin was intragastrically administered after the last injection of bordetella pertussis solution, for consecutive 3 weeks.
Experimental objective: one common feature of autoimmune diseases is the […]. In this experiment, the numbers of CD4+ and CD8+ cells in peripheral blood T cell subgroup of EAE mice mode were measured by flow cytometer (FACS), and the ratio of them was obtained; and the effects of icariin on these changes were observed.
Experimental method: mice were anesthetized with pentobarbital sodium, blood sample was taken from abdominal aorta, stood at room temperature for 2 h, centrifuged at 3000 rpm for 20 min, and cells were taken, added with anti-CD4+, CD8+ T cell antibodies with different markers, then the percentages of CD4+, CD8+ cells in T lymphocytes were measured by flow cytometer, and the CD4+/CD8+ T cells ratio was calculated.

[2] = system: Superoxide dismutase (SOD); assay: SOD activity of cerebral cortex, biochemical kit, EAE rats; conditions: positive control drug, dose not given
Description: as §1
Experimental objective: the lipid peroxidation between oxygen free radicals and unsaturated fatty acids of cell membranes and organelle membranes results in the damage, degradation, denaturation and dysfunction of membrane phospholipids. Malondialdehyde (MDA) is a metabolic product of lipid peroxidation, and the increase of MDA indicates the enhancement of lipid peroxidation, which may lead to damage of nerve cells and myelin sheath. Superoxide dismutase (SOD) can scavenge superoxide anions and is an important antioxidase in vivo. In this experiment, SOD activity and MDA content of brain tissues in EAE rat model were measured by biochemistry method, and the effects of Epimedium flavanoids on changes thereof were observed. […]

[3] = system: myelinoclasis of spinal cord lumbar intumescentia in EAE rat model; assay: Myelinoclasis of spinal cord lumbar intumescentia, LFB staining, EAE rats; conditions: positive control drug, dose not given, scale 0-4
Description: as §1, with “weeks. […]” for “weeks.”
(§2) Experimental method: the rats were anesthetized with 10% chloral hydrate on the 14th day of experiment, fixed by perfusion of 4% paraformaldehyde, spinal cord tissues were taken for making paraffin sections, section thickness 4 μm. (1) Stained with LFB, observed under microscope, and scored according to the following standard: 0 score, absence of myelinoclasis; 1 score, one small range of myelinoclasis; 2 score, 2 or 3 small ranges of myelinoclasis; 3 score, 1 to 2 large ranges of myelinoclasis; 4 score, large ranges of myelinoclasis accumulatively existing in 20% or more of white matter regions. […]

[4] = system: inflammatory cell infiltration of spinal cord lumbar intumescentia in EAE rat model; assay: Inflammatory cell infiltration of spinal cord lumbar intumescentia, HE staining, EAE rats; conditions: positive control drug, dose not given, scale 0-4
Description: as §1, with “weeks. […]” for “weeks.”
as §2

CC(=O)OCC(=O)[C@@]1(O)CC[C@H]2[C@@H]3CCC4=CC(=O)C=C[C@]4(C)[C@H]3C(=O)C[C@@]21C [prednisone acetate]
TNF-α content (TNF-α): 64.29 ± 7.52 pg/mg pro
CD4 + T cells [1]: 30.45 ± 8.77%
CD4 +/CD8 + ratio [1]: 0.52 ± 0.23
CD8 + T cells [1]: 60.62 ± 5.58%
SOD activity [2]: 134.5 ± 5.1 U/mg protein
Myelinoclasis (LFB staining score) [3]: 0.89 ± 0.20
Inflammatory cell infiltration (HE staining score) [4]: 1.00 ± 0.29
